# Test results reported in patent US20020137929A1, “1 - (3-heterocyclylphenyl) isothiourea, -isourea, -guanidine and -amidine herbicidal agents” (Intellectual Property Department, BASF Aktiengesellschaft, priority 1998, published 2002).
# Columns and labels:
# ECHCG (Barnyardgrass) = assay: Preemergence herbicidal evaluation; format: in vivo, Echinochloa crus-galli; conditions: rated 4-5 weeks after treatment; for ECHCG rating: preemergence, 0-9 scale
# Outline: (§1)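 Scores (0–9) reflect visual comparison with control plants for stand, vigor, malformation, size and chlorosis. Compound was applied to the soil after sowing, before emergence, as an aqueous acetone spray (about 0.0156–0.500 kg/ha), and cups were kept in a greenhouse for 4–5 weeks.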
# MOOVA (Monochoria) = assay: Postemergence weed control under flooded paddy conditions; format: in vivo, Monochoria vaginalis; conditions: postemergence weeds, rated 3 to 4 weeks after treatment
# Outline: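 With weeds 3 to 5 cm tall and rice at the 1.5 to 2.5 leaf stage, containers were flooded and water held 1.5 to 3 cm above soil. Compounds in 50/50 v/v aqueous/acetone went into the flood water at about 0.0313 to 0.500 kg/ha a.i. Effects were visually rated 0–9 against controls after three to four weeks in the greenhouse.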
# [1] = tested on: IPOHE (Morningglory, Ivyleaf); assay: Postemergence herbicidal evaluation; format: in vivo, Ipomoea hederacea; conditions: postemergence
# Outline: (§2)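 First, seedlings were raised for around two weeks. Next, test material in 50/50 acetone/water containing 0.5% TWEEN 20 was sprayed through a nozzle at 40 psi, equivalent to about 0.0156–0.500 kg/ha. Finally, after 4–5 weeks in the greenhouse, plants were rated 0–9.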
# [2] = tested on: CHEAL (Lambsquarters, Common); assay: Postemergence herbicidal evaluation; format: in vivo, Chenopodium album; conditions: postemergence
# Outline: as §2
# GALAP (Galium) = assay: Preemergence herbicidal evaluation; format: in vivo, Galium aparine; conditions: rated 4-5 weeks after treatment; for GALAP rating: preemergence, 0-9 scale
# Outline: as §1
# [3] = tested on: GLXMAW (Soybean, Williams); assay: Preemergence herbicidal evaluation; format: in vivo, Glycine max, (L.) Merr. cv Williams; conditions: rated 4-5 weeks after treatment; for GLXMAW rating: preemergence, 0-9 scale
# Outline: as §1
compound,measurement,setting,value
"C=CCN1C(=O)C(CC(N)=O)SC1=Nc1cc(-n2c(=O)cc(C(F)(F)F)n(C)c2=O)c(F)cc1Cl (stereo not drawn) [Compound 99, 3-Allyl-2-{{2-chloro-5-[3,6-dihydro-3-methyl-2,6-dioxo-4-(trifluoromethyl)-1(2H)-pyrimidinyl]-4-fluorophenyl}imino}-4-oxo-5-thiazolidineacetamide]",ECHCG rating,ECHCG (Barnyardgrass); 0.0156 kg/ha,0.0
same,ECHCG rating,ECHCG (Barnyardgrass); 0.0313 kg/ha,0.0
same,ECHCG rating,ECHCG (Barnyardgrass); 0.0625 kg/ha,0.0
same,ECHCG rating,ECHCG (Barnyardgrass); 0.1250 kg/ha,1.0
same,ECHCG rating,ECHCG (Barnyardgrass); 0.2500 kg/ha,1.0
same,ECHCG rating,ECHCG (Barnyardgrass); 0.5000 kg/ha,7.0
same,Herbicidal rating MOOVA,MOOVA (Monochoria); Rate 0.0313 kg/ha,9.0
same,Herbicidal rating MOOVA,MOOVA (Monochoria); Rate 0.0625 kg/ha,9.0
same,Herbicidal rating MOOVA,MOOVA (Monochoria); Rate 0.1250 kg/ha,9.0
same,Herbicidal rating MOOVA,MOOVA (Monochoria); Rate 0.2500 kg/ha,9.0
same,Herbicidal rating MOOVA,MOOVA (Monochoria); Rate 0.5000 kg/ha,9.0
same,herbicidal rating IPOHE,[1]; rate 0.0156 kg/ha,9.0
same,herbicidal rating IPOHE,[1]; rate 0.0313 kg/ha,9.0
same,IPOHE herbicidal rating,[1]; rate 0.0625 kg/ha,9.0
same,IPOHE herbicidal rating,[1]; rate 0.1250 kg/ha,9.0
same,herbicidal rating CHEAL,[2]; rate 0.0156 kg/ha,7.0
same,herbicidal rating CHEAL,[2]; rate 0.0313 kg/ha,7.0
same,CHEAL herbicidal rating,[2]; rate 0.0625 kg/ha,9.0
same,CHEAL herbicidal rating,[2]; rate 0.1250 kg/ha,9.0
same,GALAP rating,GALAP (Galium); 0.0156 kg/ha,0.0
same,GALAP rating,GALAP (Galium); 0.0313 kg/ha,0.0
same,GALAP rating,GALAP (Galium); 0.0625 kg/ha,1.0
same,GALAP rating,GALAP (Galium); 0.1250 kg/ha,7.0
same,GALAP rating,GALAP (Galium); 0.2500 kg/ha,9.0
same,GALAP rating,GALAP (Galium); 0.5000 kg/ha,7.0
same,GLXMAW rating,[3]; 0.0156 kg/ha,0.0
same,GLXMAW rating,[3]; 0.0313 kg/ha,0.0
same,GLXMAW rating,[3]; 0.0625 kg/ha,3.0
same,GLXMAW rating,[3]; 0.1250 kg/ha,4.0
same,GLXMAW rating,[3]; 0.2500 kg/ha,7.0
same,GLXMAW rating,[3]; 0.5000 kg/ha,7.0
"CCOC(=O)CN1C(=O)C(CC(=O)NS(=O)(=O)c2ccccc2)SC1=Nc1cc(-n2c(=O)cc(C(F)(F)F)n(C)c2=O)c(F)cc1Cl (stereo not drawn) [Compound 100, Ethyl 2-{{2-chloro-5-[3,6-dihydro-3-methyl-2,6-dioxo-4-(trifluoromethyl)-1(2H)-pyrimidinyl]-4-fluorophenyl}imino}-4-oxo-5-{[(phenylsulfonyl)-carbamoyl]methyl]-3-thiazolidineacetate]",ECHCG rating,ECHCG (Barnyardgrass); 0.0313 kg/ha,0.0
same,ECHCG rating,ECHCG (Barnyardgrass); 0.0625 kg/ha,0.0
same,ECHCG rating,ECHCG (Barnyardgrass); 0.1250 kg/ha,0.0
same,ECHCG rating,ECHCG (Barnyardgrass); 0.2500 kg/ha,1.0
same,ECHCG rating,ECHCG (Barnyardgrass); 0.5000 kg/ha,1.0
same,Herbicidal rating MOOVA,MOOVA (Monochoria); Rate 0.0313 kg/ha,9.0
same,Herbicidal rating MOOVA,MOOVA (Monochoria); Rate 0.0625 kg/ha,9.0
same,Herbicidal rating MOOVA,MOOVA (Monochoria); Rate 0.1250 kg/ha,9.0
same,Herbicidal rating MOOVA,MOOVA (Monochoria); Rate 0.2500 kg/ha,9.0
same,Herbicidal rating MOOVA,MOOVA (Monochoria); Rate 0.5000 kg/ha,9.0
same,herbicidal rating IPOHE,[1]; rate 0.0156 kg/ha,5.0
same,herbicidal rating IPOHE,[1]; rate 0.0313 kg/ha,9.0
same,herbicidal rating IPOHE,[1]; rate 0.0625 kg/ha,9.0
same,herbicidal rating IPOHE,[1]; rate 0.1250 kg/ha,9.0
same,herbicidal rating CHEAL,[2]; rate 0.0156 kg/ha,5.0
same,herbicidal rating CHEAL,[2]; rate 0.0313 kg/ha,7.0
same,herbicidal rating CHEAL,[2]; rate 0.0625 kg/ha,7.0
same,herbicidal rating CHEAL,[2]; rate 0.1250 kg/ha,9.0
same,GALAP rating,GALAP (Galium); 0.0313 kg/ha,0.0
same,GALAP rating,GALAP (Galium); 0.0625 kg/ha,1.0
same,GALAP rating,GALAP (Galium); 0.2500 kg/ha,6.0
same,GALAP rating,GALAP (Galium); 0.5000 kg/ha,6.0
same,GLXMAW rating,[3]; 0.0313 kg/ha,0.0
same,GLXMAW rating,[3]; 0.0625 kg/ha,1.0
same,GLXMAW rating,[3]; 0.1250 kg/ha,1.0
same,GLXMAW rating,[3]; 0.2500 kg/ha,0.0
same,GLXMAW rating,[3]; 0.5000 kg/ha,2.0
"CCOC(=O)CN1C(=O)C(CC(=O)NS(=O)(=O)CC)SC1=Nc1cc(-n2c(=O)cc(C(F)(F)F)n(C)c2=O)c(F)cc1Cl (stereo not drawn) [Compound 103, Ethyl 2-{{2-chloro-5-[3,6-dihydro-3-methyl-2,6-dioxo-4-(trifluoromethyl)-1(2H)-pyrimidinyl]-4-fluorophenyl}imino}-5-{[(ethylsulfonyl)carbamoyl]-methyl}-4-oxo-3-thiazolidineacetate]",ECHCG rating,ECHCG (Barnyardgrass); 0.0313 kg/ha,0.0
same,ECHCG rating,ECHCG (Barnyardgrass); 0.0625 kg/ha,0.0
same,ECHCG rating,ECHCG (Barnyardgrass); 0.1250 kg/ha,0.0
same,ECHCG rating,ECHCG (Barnyardgrass); 0.2500 kg/ha,0.0
same,ECHCG rating,ECHCG (Barnyardgrass); 0.5000 kg/ha,2.0
same,Herbicidal rating MOOVA,MOOVA (Monochoria); Rate 0.0313 kg/ha,5.0
same,Herbicidal rating MOOVA,MOOVA (Monochoria); Rate 0.0625 kg/ha,7.0
same,Herbicidal rating MOOVA,MOOVA (Monochoria); Rate 0.1250 kg/ha,9.0
same,Herbicidal rating MOOVA,MOOVA (Monochoria); Rate 0.2500 kg/ha,9.0
same,herbicidal rating IPOHE,[1]; rate 0.0156 kg/ha,9.0
same,herbicidal rating IPOHE,[1]; rate 0.0313 kg/ha,9.0
same,herbicidal rating IPOHE,[1]; rate 0.0625 kg/ha,9.0
same,herbicidal rating IPOHE,[1]; rate 0.1250 kg/ha,9.0
same,herbicidal rating CHEAL,[2]; rate 0.0156 kg/ha,3.0
same,herbicidal rating CHEAL,[2]; rate 0.0313 kg/ha,3.0
same,herbicidal rating CHEAL,[2]; rate 0.0625 kg/ha,5.0
same,herbicidal rating CHEAL,[2]; rate 0.1250 kg/ha,9.0
same,GALAP rating,GALAP (Galium); 0.0313 kg/ha,0.0
same,GALAP rating,GALAP (Galium); 0.0625 kg/ha,0.0
same,GALAP rating,GALAP (Galium); 0.1250 kg/ha,0.0
same,GALAP rating,GALAP (Galium); 0.2500 kg/ha,0.0
same,GALAP rating,GALAP (Galium); 0.5000 kg/ha,7.0
same,GLXMAW rating,[3]; 0.0313 kg/ha,0.0
same,GLXMAW rating,[3]; 0.0625 kg/ha,0.0
same,GLXMAW rating,[3]; 0.1250 kg/ha,0.0
same,GLXMAW rating,[3]; 0.2500 kg/ha,0.0
same,GLXMAW rating,[3]; 0.5000 kg/ha,3.0
"CCS(=O)(=O)NC(=O)CC1SC(=Nc2cc(-n3c(=O)cc(C(F)(F)F)n(C)c3=O)c(F)cc2Cl)N(C)C1=O (stereo not drawn) [Compound 105, 2-{{2-Chloro-5-[3,6-dihydro-3-methyl-2,6-dioxo-4-(trifluoromethyl)-1(2H)-pyrimidinyl]-4-fluorophenyl}imino}-N-(ethylsulfonyl)-3-methyl-4-oxo-5-thiazolidineacetamide]",ECHCG rating,ECHCG (Barnyardgrass); 0.1250 kg/ha,0.0
same,ECHCG rating,ECHCG (Barnyardgrass); 0.2500 kg/ha,0.0
same,ECHCG rating,ECHCG (Barnyardgrass); 0.5000 kg/ha,1.0
same,Herbicidal rating MOOVA,MOOVA (Monochoria); Rate 0.0313 kg/ha,6.0
same,Herbicidal rating MOOVA,MOOVA (Monochoria); Rate 0.0625 kg/ha,7.0
same,Herbicidal rating MOOVA,MOOVA (Monochoria); Rate 0.1250 kg/ha,7.0
same,Herbicidal rating MOOVA,MOOVA (Monochoria); Rate 0.2500 kg/ha,9.0
same,herbicidal rating IPOHE,[1]; rate 0.0156 kg/ha,5.0
same,herbicidal rating IPOHE,[1]; rate 0.0313 kg/ha,9.0
same,herbicidal rating IPOHE,[1]; rate 0.0625 kg/ha,9.0
same,herbicidal rating IPOHE,[1]; rate 0.1250 kg/ha,9.0
same,herbicidal rating CHEAL,[2]; rate 0.0156 kg/ha,0.0
same,herbicidal rating CHEAL,[2]; rate 0.0313 kg/ha,0.0
same,herbicidal rating CHEAL,[2]; rate 0.0625 kg/ha,2.0
same,herbicidal rating CHEAL,[2]; rate 0.1250 kg/ha,2.0
same,GALAP rating,GALAP (Galium); 0.2500 kg/ha,3.0
same,GALAP rating,GALAP (Galium); 0.5000 kg/ha,7.0
same,GLXMAW rating,[3]; 0.1250 kg/ha,0.0
same,GLXMAW rating,[3]; 0.2500 kg/ha,0.0
same,GLXMAW rating,[3]; 0.5000 kg/ha,0.0
"Cn1c(C(F)(F)F)cc(=O)n(-c2cc(N=C3SCC(=O)N3CC(=O)OCC#N)c(Cl)cc2F)c1=O [Compound 109, 2-{{2-Chloro-5-[3,6-dihydro-3-methyl-2,6-dioxo-4-(trifluoromethyl)-1(2H)-pyrimidinyl]-4-fluorophenyl}imino}-4-oxo-3-thiazolidineacetic acid, ester with glycolonitrile]",Preemergence herbicidal rating ECHCG,ECHCG (Barnyardgrass); rate 0.0156 kg/ha,1.5
same,Preemergence herbicidal rating ECHCG,ECHCG (Barnyardgrass); rate 0.0313 kg/ha,2.5
same,Preemergence herbicidal rating ECHCG,ECHCG (Barnyardgrass); rate 0.0625 kg/ha,4.0
same,Preemergence herbicidal rating ECHCG,ECHCG (Barnyardgrass); rate 0.1250 kg/ha,7.0
same,Preemergence herbicidal rating ECHCG,ECHCG (Barnyardgrass); rate 0.2500 kg/ha,8.5
same,Preemergence herbicidal rating ECHCG,ECHCG (Barnyardgrass); rate 0.5000 kg/ha,9.0
same,Herbicidal rating MOOVA,MOOVA (Monochoria); Rate 0.0313 kg/ha,2.0
same,Herbicidal rating MOOVA,MOOVA (Monochoria); Rate 0.0625 kg/ha,4.0
same,Herbicidal rating MOOVA,MOOVA (Monochoria); Rate 0.1250 kg/ha,9.0
same,Herbicidal rating MOOVA,MOOVA (Monochoria); Rate 0.2500 kg/ha,9.0
same,herbicidal rating IPOHE,[1]; rate 0.0158 kg/ha,9.0
same,herbicidal rating IPOHE,[1]; rate 0.0315 kg/ha,9.0
same,herbicidal rating IPOHE,[1]; rate 0.0630 kg/ha,9.0
same,herbicidal rating CHEAL,[2]; rate 0.0158 kg/ha,9.0
same,herbicidal rating CHEAL,[2]; rate 0.0315 kg/ha,9.0
same,herbicidal rating CHEAL,[2]; rate 0.0630 kg/ha,9.0
same,Preemergence herbicidal rating GALAP,GALAP (Galium); rate 0.0156 kg/ha,3.0
same,Preemergence herbicidal rating GALAP,GALAP (Galium); rate 0.0313 kg/ha,3.0
same,Preemergence herbicidal rating GALAP,GALAP (Galium); rate 0.0625 kg/ha,3.0
same,Preemergence herbicidal rating GALAP,GALAP (Galium); rate 0.1250 kg/ha,4.0
same,Preemergence herbicidal rating GALAP,GALAP (Galium); rate 0.2500 kg/ha,4.0
same,Preemergence herbicidal rating GLXMAW,[3]; rate 0.0156 kg/ha,1.5
same,Preemergence herbicidal rating GLXMAW,[3]; rate 0.0313 kg/ha,2.0
same,Preemergence herbicidal rating GLXMAW,[3]; rate 0.0625 kg/ha,5.0
same,Preemergence herbicidal rating GLXMAW,[3]; rate 0.1250 kg/ha,7.5
same,Preemergence herbicidal rating GLXMAW,[3]; rate 0.2500 kg/ha,9.0
same,Preemergence herbicidal rating GLXMAW,[3]; rate 0.5000 kg/ha,9.0
